The text below walks through data of US8895571B2, “Isoindolinone and pyrrolopyridinone derivatives as Akt inhibitors” (Incyte Corporation, priority 2011, dated 2014).

Bounds are passed on as bounds.

The target of one experiment is T1, Full length Akt1 (Homo sapiens, UniProt P31749).
T1 construct: Full length Akt1 (cat #P2999); purchased PerkinElmer P2999
Put plainly: In vitro Akt kinase enzymatic assay (HTRF), Akt1. The class given is biochemical. The settings on record: 0.4 nM Akt1, substrate solution with 5 mM ATP, 25° C. 1 hr. Put shortly:
(§1)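 Full-length enzyme (0.4 nM Akt1 or 0.6 nM Akt2/Akt3 in the enzyme solution) was combined with a substrate solution of 0.1 μM ULight-Crosstide plus 5 mM ATP in pH 7.8 HEPES/MgCl2/DTT/Tween20 buffer and reacted 1 hr at 25° C. The EDTA stop contained Eu anti-phospho-Crosstide; IC50 was fitted from 11-point HTRF inhibition curves.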
(Time-resolved FRET reads energy transfer from a long-lived donor to a nearby acceptor.)

A further experiment has as its target T2, Full length Akt2 (Homo sapiens, UniProt P31751).
T2 construct: Full length Akt1 (cat #P2999), Akt2 (cat #PV3184); purchased PerkinElmer PV3184
Put plainly: In vitro Akt kinase enzymatic assay (HTRF), Akt2. Format: biochemical. The settings on record: 0.6 nM Akt2, substrate solution with 5 mM ATP, 25° C. 1 hr. Put shortly:
as §1

In another experiment the target is T3, Full length Akt3 (Homo sapiens, UniProt Q9Y243).
T3 construct: Full length Akt1 (cat #P2999), Akt2 (cat #PV3184), Akt3 (cat #PV3185); purchased PerkinElmer PV3185
Nature of the experiment: In vitro Akt kinase enzymatic assay (HTRF), Akt3. Format: biochemical. The settings on record: 0.6 nM Akt3, substrate solution with 5 mM ATP, 25° C. 1 hr. Put shortly:
as §1

In a further experiment the target is T4, Full length PKA (Homo sapiens, UniProt P17612).
T4 construct: Full length PKA (cat #P2912); purchased Invitrogen P2912
Nature of the experiment: PKA in vitro enzymatic assay (HTRF). Format: biochemical. The conditions noted are these: 0.035 nM enzyme solution, substrate solution with 5 mM ATP, 25° C. 1 hr. Put shortly:
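Reaction buffer was 50 mM HEPES pH 7.8, 10 mM MgCl2, 5 mM DTT and 0.005% Tween20. Enzyme solution was 0.035 nM, and substrate solution was 0.1 μM fluorescein-CREBtide with 5 mM ATP. After 1 h at 25°C, EDTA plus Tb anti-pS133 antibody was added, TR-FRET was read, and IC50 was fitted from 11-point, 3-fold % inhibition curves.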

Experiment [1] relates to LNCaP cells (human prostate tumor cell line). Nature of the experiment: Akt LNCaP proliferation assay (MTS). The class given is cell-based. The conditions noted are these: 48 hours. On the procedure:
LNCaP cells (human prostate tumor cell line) were plated in 96 well plates (COSTAR, Corning, N.Y.) in 50 μL at 10,000 cells/well in RPMI (Media Tech, Manassas, Va.), 2% fetal bovine serum (Hyclone/Thermo, Logan, Utah) and incubated overnight at 37° C., 5% CO2. […] of compound solution were added at final concentrations of 1000 nM to 0.5 nM in 3 fold dilutions for IC50 determination and plates further incubated for 48 hours. 100 μL of Cell Titer 96® Aqueous reagent, from an MTS colorimetric method for determining the number of viable cells in proliferation (Cell titer 96, Promega, Madison, Wis.) was added for 2 hours at 37° C., 5% CO2. Each plate was mixed well and read on a SpectroMax M5 automated plate reader (Molecular Devices, Sunnyvale Calif.). The ability of the compound to inhibit proliferation was reported as the inhibitor concentration required for 50% inhibition (IC50 values) of total cell proliferation. See Table 8 for data related to compounds of the examples.

Where [2] appears, read: 2% fetal bovine serum, class symbols.

T1 sequence (P31749 whole entry): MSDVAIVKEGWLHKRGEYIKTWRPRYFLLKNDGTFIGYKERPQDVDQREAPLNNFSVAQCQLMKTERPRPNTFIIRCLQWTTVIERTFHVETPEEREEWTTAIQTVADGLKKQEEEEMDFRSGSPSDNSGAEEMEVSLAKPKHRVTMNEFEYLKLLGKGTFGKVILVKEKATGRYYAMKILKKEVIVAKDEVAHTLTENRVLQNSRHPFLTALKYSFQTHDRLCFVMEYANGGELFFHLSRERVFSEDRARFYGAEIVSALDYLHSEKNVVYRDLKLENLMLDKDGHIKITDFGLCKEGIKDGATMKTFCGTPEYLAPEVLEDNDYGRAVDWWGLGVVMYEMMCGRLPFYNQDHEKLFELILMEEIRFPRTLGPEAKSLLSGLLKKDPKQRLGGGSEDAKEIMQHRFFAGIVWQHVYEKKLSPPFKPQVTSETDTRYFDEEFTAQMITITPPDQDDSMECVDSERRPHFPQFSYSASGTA
T2 sequence (P31751 whole entry): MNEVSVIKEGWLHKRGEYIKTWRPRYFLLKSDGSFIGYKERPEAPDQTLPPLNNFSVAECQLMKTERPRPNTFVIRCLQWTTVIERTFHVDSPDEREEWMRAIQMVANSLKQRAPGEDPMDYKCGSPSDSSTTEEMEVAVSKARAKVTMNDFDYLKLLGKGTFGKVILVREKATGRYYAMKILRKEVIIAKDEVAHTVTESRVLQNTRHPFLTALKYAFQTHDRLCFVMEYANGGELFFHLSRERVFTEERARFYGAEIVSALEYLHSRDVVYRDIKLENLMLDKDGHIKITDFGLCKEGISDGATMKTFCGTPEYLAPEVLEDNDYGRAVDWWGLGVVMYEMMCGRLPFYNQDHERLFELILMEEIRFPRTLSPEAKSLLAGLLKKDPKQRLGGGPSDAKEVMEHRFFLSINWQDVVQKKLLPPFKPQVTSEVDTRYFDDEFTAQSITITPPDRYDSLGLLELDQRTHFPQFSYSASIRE
T3 sequence (Q9Y243 whole entry): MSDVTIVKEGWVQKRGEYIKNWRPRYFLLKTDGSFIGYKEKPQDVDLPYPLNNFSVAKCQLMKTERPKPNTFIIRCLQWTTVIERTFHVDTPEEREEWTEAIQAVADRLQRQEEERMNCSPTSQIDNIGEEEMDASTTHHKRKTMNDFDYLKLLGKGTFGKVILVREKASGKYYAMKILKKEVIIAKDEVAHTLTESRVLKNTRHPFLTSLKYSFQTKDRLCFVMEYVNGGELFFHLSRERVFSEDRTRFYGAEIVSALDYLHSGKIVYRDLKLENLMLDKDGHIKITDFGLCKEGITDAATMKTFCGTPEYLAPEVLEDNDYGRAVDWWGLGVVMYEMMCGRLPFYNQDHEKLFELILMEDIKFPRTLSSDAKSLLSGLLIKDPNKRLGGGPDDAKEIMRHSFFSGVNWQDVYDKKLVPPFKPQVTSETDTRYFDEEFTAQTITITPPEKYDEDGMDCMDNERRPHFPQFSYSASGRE

In the case of `Cc1cnn(C)c1-c1cc2c(cn1)C(=O)N([C@H](CN)Cc1cc(F)cc(F)c1)C2` [Example 103, 2-[(1S)-2-amino-1-(3,5-difluoro-benzyl)ethyl]-6-(4-methyl-1-methyl-1H-pyrazol-5-yl)-1,2-dihydro-3H-pyrrolo[3,4-c]pyridin-3-one], the IC50 (as a rule, the concentration that gives 50% inhibition) against Full length Akt1 was less than 500 nM; against Full length Akt2 it was less than 500 nM; against Full length Akt3, less than 500 nM; at Full length PKA, 0.5 to 5 µM; in experiment [1] (setting [2]), less than 500 nM.
As for `Cn1ncc(Br)c1-c1ccc2c(c1)CN([C@H](CN)Cc1cccc(F)c1)C2=O` [Example 12, 2-[(1S)-2-amino-1-(3-fluorobenzyl)ethyl]-5-(4-bromo-1-methyl-1H-pyrazol-5-yl)isoindolin-1-one], the IC50 was less than 500 nM on Full length Akt1; less than 500 nM against Full length Akt2; less than 500 nM against Full length Akt3; 0.5 to 5 µM at Full length PKA; less than 500 nM in experiment [1] (setting [2]).
Turning to `Cn1ncc(COC2CCC2)c1-c1cc2c(cn1)C(=O)N([C@H](CN)Cc1cc(F)cc(F)c1)C2` [Example 108, 2-[(1S)-2-amino-1-(3,5-difluoro-benzyl)ethyl]-6-[4-(cyclobutoxy-methyl)-1-methyl-1H-pyrazol-5-yl]-1,2-dihydro-3H-pyrrolo[3,4-c]pyridin-3-one], the IC50 against Full length Akt1 is less than 500 nM; against Full length Akt2 it was less than 500 nM; at Full length Akt3, less than 500 nM; at Full length PKA it was 0.5 to 5 µM; in experiment [1] (setting [2]), less than 500 nM.
On to `CSCc1cnn(C)c1-c1ccc2c(c1)CN([C@H](CN)Cc1cccc(F)c1)C2=O` [Example 10], for which the IC50 is less than 500 nM against Full length Akt1; 500 to 5000 nM at Full length Akt2; 500 to 5000 nM against Full length Akt3; greater than 5 µM against Full length PKA; 500 to 5000 nM in experiment [1] (setting [2]).
`CCOCc1cnn(C)c1-c1ccc2c(c1)CN([C@H](CN)Cc1cc(F)cc(F)c1)C2=O` [Example 44, 2-[(1S)-2-amino-1-(3,5-difluorobenzyl)ethyl]-5-(4-ethoxymethyl-1-methyl-1H-pyrazol-5-yl)isoindolin-1-one]: the IC50 was less than 500 nM on Full length Akt1; less than 500 nM at Full length Akt2; less than 500 nM at Full length Akt3; 0.5 to 5 µM against Full length PKA; less than 500 nM in experiment [1] (setting [2]).
With `Cn1ncc(Cl)c1-c1ccc2c(c1)CN([C@H](CN)Cc1cccc(C(F)(F)F)c1)C2=O` (stereo in doubt) [Example 61, 2-{2-amino-1-[3-(trifluoromethyl)benzyl]ethyl}-5-(4-chloro-1-methyl-1H-pyrazol-5-yl)isoindolin-1-one], the IC50 on Full length Akt1 is less than 500 nM; against Full length Akt2, less than 500 nM; against Full length Akt3 it was less than 500 nM; on Full length PKA, 0.5 to 5 µM; in experiment [1] (setting [2]) it was 500 to 5000 nM.
Consider `Cn1ncc(Br)c1-c1ccc2c(c1)CN([C@H](CN)Cc1ccccc1)C2=O` [Example 57, 2-[(1S)-2-amino-1-benzyl-ethyl]-5-(4-bromo-1-methyl-1H-pyrazol-5-yl)isoindolin-1-one], for which the IC50 is less than 500 nM on Full length Akt1; less than 500 nM against Full length Akt2; less than 500 nM against Full length Akt3; greater than 5 µM at Full length PKA; less than 500 nM in experiment [1] (setting [2]).
Consider `Cn1ncc(F)c1-c1ccc2c(c1)CN([C@H](CN)Cc1cccc(F)c1)C2=O` [Example 11, 2-[(1S)-2-amino-1-(3-fluorobenzyl)ethyl]-5-(4-fluoro-1-methyl-1H-pyrazol-5-yl)isoindolin-1-one], for which the IC50 on Full length Akt1 is less than 500 nM; on Full length Akt2 it was less than 500 nM; against Full length Akt3, less than 500 nM; at Full length PKA, 0.5 to 5 µM; in experiment [1] (setting [2]) it was less than 500 nM.
Consider `Cn1nccc1-c1ccc2c(c1)CN([C@H](CN)Cc1cc(F)cc(F)c1)C2=O` [Example 40, 2-[(1S)-2-amino-1-(3,5-difluorobenzyl)ethyl]-5-(1-methyl-1H-pyrazol-5-yl)isoindolin-1-one], for which the IC50 against Full length Akt1 was less than 500 nM; on Full length Akt2 it was less than 500 nM; against Full length Akt3 it was less than 500 nM; against Full length PKA it was 0.5 to 5 µM; in experiment [1] (setting [2]), less than 500 nM.
`COCc1cnn(C)c1-c1cc2c(cn1)C(=O)N([C@H](CN)Cc1cc(F)cc(F)c1)C2` [Example 105, 2-[(1S)-2-amino-1-(3,5-difluoro-benzyl)ethyl]-6-(4-methoxymethyl-1-methyl-1H-pyrazol-5-yl)-1,2-dihydro-3H-pyrrolo[3,4-c]pyridin-3-one]: the IC50 against Full length Akt1 is less than 500 nM; against Full length Akt2, 500 to 5000 nM; against Full length Akt3 it was less than 500 nM; on Full length PKA it was greater than 5 µM; in experiment [1] (setting [2]), 500 to 5000 nM.
On to `Cn1ncc(C#CC(C)(C)O)c1-c1ccc2c(c1)CN([C@H](CN)Cc1cc(F)cc(F)c1)C2=O` [Example 54, 2-[(1S)-2-amino-1-(3,5-difluorobenzyl)ethyl]-5-[4-(3-hydroxy-3-methylbut-1-yn-1-yl)-1-methyl-1H-pyrazol-5-yl]isoindolin-1-one], for which the IC50 was less than 500 nM against Full length Akt1; less than 500 nM against Full length Akt2; less than 500 nM against Full length Akt3; greater than 5 µM on Full length PKA; less than 500 nM in experiment [1] (setting [2]).
Consider `CCCOCc1cnn(C)c1-c1ccc2c(c1)CN([C@H](CN)Cc1cccc(F)c1)C2=O` [Example 7, 2-[(1S)-2-amino-1-(3-fluorobenzyl)ethyl]-5-[4-(1-propoxymethyl)-1-methyl-1H-pyrazol-5-yl]isoindolin-1-one], for which the IC50 on Full length Akt1 was less than 500 nM; against Full length Akt2, less than 500 nM; at Full length Akt3 it was less than 500 nM; against Full length PKA, greater than 5 µM; in experiment [1] (setting [2]), less than 500 nM.
Take `CC(C)Cn1nccc1-c1ccc2c(c1)CN([C@H](CN)Cc1cc(F)cc(F)c1)C2=O` [Example 130, 2-[(1S)-2-amino-1-(3,5-difluorobenzyl)ethyl]-5-(1-isobutyl-1H-pyrazol-5-yl)isoindolin-1-one]: the IC50 at Full length Akt1 is 500 to 5000 nM; against Full length Akt2, greater than 5000 nM; on Full length Akt3, greater than 5000 nM; on Full length PKA, greater than 5 µM; in experiment [1] (given as a bound, final concentrations 1000 nM to 0.5 nM) it was greater than 1000 nM.
Regarding `CCOCc1cnn(C)c1-c1ccc2c(c1)CN([C@H](CN)Cc1cccc(F)c1)C2=O` [Example 5, 2-[(1S)-2-amino-1-(3-fluorobenzyl)ethyl]-5-(4-ethoxymethyl-1-methyl-1H-pyrazol-5-yl)isoindolin-1-one], the IC50 at Full length Akt1 was less than 500 nM; against Full length Akt2 it was less than 500 nM; against Full length Akt3 it was less than 500 nM; against Full length PKA, greater than 5 µM; in experiment [1] (setting [2]), less than 500 nM.
For `Cn1nccc1-c1ccc2c(c1)CN(C(CN)c1cccc(F)c1)C2=O` (stereo not drawn) [Example 117, 2-[2-amino-1-(3-fluorophenyl)ethyl]-5-(1-methyl-1H-pyrazol-5-yl)isoindolin-1-one], the IC50 on Full length Akt1 was less than 500 nM; against Full length Akt2, less than 500 nM; against Full length Akt3 it was 500 to 5000 nM; against Full length PKA, 0.5 to 5 µM; in experiment [1] (setting [2]), less than 500 nM.
For the compound `CSCc1cnn(C)c1-c1ccc2c(c1)CN([C@H](CN)Cc1ccccc1)C2=O` [Example 59, 2-[(1S)-2-amino-1-benzyl-ethyl]-5-[4-(methylthiomethyl)-1-methyl-1H-pyrazol-5-yl]isoindolin-1-one], the IC50 is less than 500 nM against Full length Akt1, 500 to 5000 nM on Full length Akt2, 500 to 5000 nM at Full length Akt3 and greater than 5 µM at Full length PKA.
Take `Cn1ncc(-c2cncnc2)c1-c1ccc2c(c1)CN([C@H](CN)Cc1cccc(F)c1)C2=O` [Example 23, 2-[(1S)-2-amino-1-(3-fluorobenzyl)ethyl]-5-(1-methyl-4-pyrimidin-5-yl-1H-pyrazol-5-yl)isoindolin-1-one]: the IC50 on Full length Akt1 was greater than 5000 nM; on Full length Akt2 it was greater than 5000 nM; against Full length Akt3, greater than 5000 nM; on Full length PKA, greater than 5 µM.
As for `CNC(=O)c1ccc(-c2cnn(C)c2-c2ccc3c(c2)CN([C@H](CN)Cc2cccc(F)c2)C3=O)cn1` [Example 29, 5-(5-{2-[(1S)-2-amino-1-(3-fluorobenzyl)ethyl]-1-oxo-2,3-dihydro-1H-isoindol-5-yl}-1-methyl-1H-pyrazol-4-yl)-N-methylpyridine-2-carboxamide], the IC50 on Full length Akt1 was 500 to 5000 nM; against Full length Akt2, greater than 5000 nM; on Full length Akt3, greater than 5000 nM; against Full length PKA it was greater than 5 µM.
